Data taken from the supplement of paper PMC8617591.

Key:
[1] = test system: Mycobacterium tuberculosis Erdman (autoluminescent); test: total FIC50 (Loewe) at 50% inhibition, three-drug combination (log2); higher = more antagonistic
Description: (§1)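 DiaMOND equipotent three-drug combination dose responses (10 doses, 1.5- or 2-fold spacing, centred on IC90) against autoluminescent M. tuberculosis Erdman in 8 in vitro models. Read-out is OD600, or luminescence for the intracellular and dormancy models, normalised to untreated wells. Hill-fit Einf, AUC25 and GRinf are potency metrics; FIC50 and FIC90 are total Loewe fractional inhibitory concentrations as log2 (negative = synergy).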

[2] = test system: Mycobacterium tuberculosis Erdman (autoluminescent); test: AUC25, normalised area under dose response up to IC25 (three-drug combination) (fraction (0-1)); higher = more potent at low dose
Description: as §1

[3] = test system: Mycobacterium tuberculosis Erdman (autoluminescent); test: total FIC90 (Loewe) at 90% inhibition, three-drug combination (log2); higher = more antagonistic
Description: as §1

[4] = test system: Mycobacterium tuberculosis Erdman (autoluminescent); test: GRinf, maximum normalised growth rate inhibition (three-drug combination) (unitless (-1 to 1)); higher = less effect (negative = killing)
Description: as §1

[5] = test system: Mycobacterium tuberculosis Erdman (autoluminescent); test: Einf, fitted maximum growth inhibition of three-drug combination (fraction); higher = stronger maximal inhibition
Description: as §1

CC(=O)NC[C@H]1CN(c2ccc(N3CCOCC3)c(F)c2)C(=O)O1 [linezolid] + O=[N+]([O-])c1cn2c(n1)OC[C@@H](OCc1ccc(OC(F)(F)F)cc1)C2 [pretomanid] + CO[C@H]1/C=C/O[C@@]2(C)Oc3c(C)c(O)c4c(O)c(c(/C=N/N5CCN(C6CCCC6)CC5)c(O)c4c3C2=O)NC(=O)/C(C)=C\C=C\[C@H](C)[C@H](O)[C@@H](C)[C@@H](O)[C@@H](C)[C@H](OC(C)=O)[C@@H]1C [rifapentine]
Conditions | AUC25, [2] | Einf, [5] | GRinf, [4] | total FIC50, [1] | total FIC90, [3]
in vitro model: acidic pH 5.7, time point: constant (~7 days, model-specific) | 0.0833 | 0.887 | 0.0321 | 0.893 | –
in vitro model: acidic pH 5.7, time point: terminal (~4-5 doublings, model-specific) | 0.0609 | 0.978 | 0.00722 | 0.838 | 0.632
in vitro model: intracellular J774, time point: constant = terminal | – | 0.953 | -0.276 | – | 0.646

Conditions | AUC25, [2] | Einf, [5] | GRinf, [4] | total FIC50, [1] | total FIC90, [3]
in vitro model: butyrate, time point: constant (~7 days, model-specific) | 0.0937 | 0.91 | -0.0425 | 0.403 | 0.09
in vitro model: butyrate, time point: terminal (~4-5 doublings, model-specific) | 0.0716 | 0.955 | 0.0296 | 0.296 | 0.336
in vitro model: cholesterol 0.05 mM, time point: constant (~7 days, model-specific) | 0.142 | 0.677 | -0.167 | 0.533 | –
in vitro model: cholesterol 0.05 mM, time point: terminal (~4-5 doublings, model-specific) | 0.127 | 0.89 | -0.198 | 0.278 | 0.6
in vitro model: cholesterol-high 0.2 mM, time point: constant (~7 days, model-specific) | 0.0858 | 0.912 | -0.159 | 0.139 | 0.124
in vitro model: cholesterol-high 0.2 mM, time point: terminal (~4-5 doublings, model-specific) | 0.095 | 1 | -0.71 | 0.348 | 0.313
in vitro model: dormancy (butyrate + nitrate, low O2), time point: constant (~7 days, model-specific) | 0.0497 | 0.894 | 0.223 | 0.906 | 0.707
in vitro model: dormancy (butyrate + nitrate, low O2), time point: terminal (~4-5 doublings, model-specific) | 0.0403 | 0.979 | -0.0764 | 0.858 | 0.899
in vitro model: standard 7H9 glycerol, time point: constant = terminal | 0.0904 | 0.932 | -0.132 | 0.424 | 0.754
in vitro model: valerate, time point: constant (~7 days, model-specific) | 0.159 | 0.913 | -0.446 | -1.08 | –
in vitro model: valerate, time point: terminal (~4-5 doublings, model-specific) | 0.125 | 0.966 | -0.15 | -0.336 | 1.3

COc1nc2ccc(Br)cc2cc1[C@@H](c1ccccc1)[C@@](O)(CCN(C)C)c1cccc2ccccc12 [bedaquiline] + CC(=O)NC[C@H]1CN(c2ccc(N3CCOCC3)c(F)c2)C(=O)O1 [linezolid] + NC(=O)c1cnccn1 [pyrazinamide]
Conditions | AUC25, [2] | Einf, [5] | GRinf, [4] | total FIC50, [1] | total FIC90, [3]
in vitro model: acidic pH 5.7, time point: constant (~7 days, model-specific) | 0.076 | 0.806 | -0.494 | 0.125 | –
in vitro model: acidic pH 5.7, time point: terminal (~4-5 doublings, model-specific) | 0.0793 | 0.981 | -0.392 | 0.681 | 0.133
in vitro model: intracellular J774, time point: constant = terminal | – | 0.928 | -0.132 | – | 0.532

Conditions | AUC25, [2] | Einf, [5] | GRinf, [4] | total FIC50, [1] | total FIC90, [3]
in vitro model: butyrate, time point: constant (~7 days, model-specific) | 0.101 | 0.947 | -0.127 | -0.0949 | 0.0532
in vitro model: butyrate, time point: terminal (~4-5 doublings, model-specific) | 0.0821 | 0.975 | -0.116 | -0.166 | 0.0226
in vitro model: cholesterol 0.05 mM, time point: constant (~7 days, model-specific) | 0.142 | 0.767 | -0.355 | – | –
in vitro model: cholesterol 0.05 mM, time point: terminal (~4-5 doublings, model-specific) | 0.141 | 0.969 | -0.491 | 0.0813 | –
in vitro model: cholesterol-high 0.2 mM, time point: constant (~7 days, model-specific) | 0.109 | 0.967 | -0.577 | 0.197 | –
in vitro model: cholesterol-high 0.2 mM, time point: terminal (~4-5 doublings, model-specific) | 0.105 | 1 | -0.793 | 0.121 | 0.311
in vitro model: dormancy (butyrate + nitrate, low O2), time point: constant (~7 days, model-specific) | 0.0774 | 0.92 | 0.268 | -0.772 | -0.755
in vitro model: dormancy (butyrate + nitrate, low O2), time point: terminal (~4-5 doublings, model-specific) | 0.0469 | 0.989 | -0.0748 | -0.0476 | -0.67
in vitro model: standard 7H9 glycerol, time point: constant = terminal | 0.0828 | 0.934 | -0.00964 | 0.406 | –
in vitro model: valerate, time point: constant (~7 days, model-specific) | 0.0833 | 0.886 | -0.102 | 0.362 | –
in vitro model: valerate, time point: terminal (~4-5 doublings, model-specific) | 0.0634 | 0.942 | -0.069 | 0.455 | 0.406

CC(C)/N=c1\cc2n(-c3ccc(Cl)cc3)c3ccccc3nc-2cc1Nc1ccc(Cl)cc1 [clofazimine] + CC(=O)NC[C@H]1CN(c2ccc(N3CCOCC3)c(F)c2)C(=O)O1 [linezolid] + COc1c(N2C[C@@H]3CCCN[C@@H]3C2)c(F)cc2c(=O)c(C(=O)O)cn(C3CC3)c12 [moxifloxacin]
Conditions | AUC25, [2] | Einf, [5] | GRinf, [4] | total FIC50, [1] | total FIC90, [3]
in vitro model: acidic pH 5.7, time point: constant (~7 days, model-specific) | 0.0788 | 0.706 | -0.3 | -0.736 | –
in vitro model: acidic pH 5.7, time point: terminal (~4-5 doublings, model-specific) | 0.0696 | 0.915 | -0.183 | 0.837 | -0.131
in vitro model: intracellular J774, time point: constant = terminal | – | 0.859 | -0.214 | – | 0.527

Conditions | AUC25, [2] | Einf, [5] | GRinf, [4] | total FIC50, [1] | total FIC90, [3]
in vitro model: butyrate, time point: constant (~7 days, model-specific) | 0.113 | 0.956 | -0.279 | 0.741 | 1.3
in vitro model: butyrate, time point: terminal (~4-5 doublings, model-specific) | 0.0854 | 0.978 | -0.148 | 0.802 | 1.05
in vitro model: cholesterol 0.05 mM, time point: constant (~7 days, model-specific) | 0.141 | 0.693 | -0.0883 | 0.0515 | –
in vitro model: cholesterol 0.05 mM, time point: terminal (~4-5 doublings, model-specific) | 0.148 | 0.925 | -0.21 | 0.132 | 1.39
in vitro model: cholesterol-high 0.2 mM, time point: constant (~7 days, model-specific) | 0.139 | 0.935 | -1 | 0.411 | 0.869
in vitro model: cholesterol-high 0.2 mM, time point: terminal (~4-5 doublings, model-specific) | 0.127 | 1 | -1 | -0.0894 | 0.513
in vitro model: dormancy (butyrate + nitrate, low O2), time point: constant (~7 days, model-specific) | 0.0737 | 0.903 | 0.201 | 1.33 | 0.822
in vitro model: dormancy (butyrate + nitrate, low O2), time point: terminal (~4-5 doublings, model-specific) | 0.0474 | 0.983 | -0.18 | 1.18 | 0.998
in vitro model: standard 7H9 glycerol, time point: constant = terminal | 0.105 | 0.971 | -0.383 | 0.199 | 1.19
in vitro model: valerate, time point: constant (~7 days, model-specific) | 0.124 | 0.868 | -0.197 | 0.648 | –
in vitro model: valerate, time point: terminal (~4-5 doublings, model-specific) | 0.0951 | 0.919 | -0.0235 | 0.275 | 1.06
